Legend:
[1] = Body weight of TgSOD1 mice; format: in vivo; conditions: TgSOD1-Cromolyn vs TgSOD1-Vehicle
Procedure: Beginning at P50, weight and neurological score (using the ALS TDI criteria) (Hatzipetros, T., et al. (2015). “A Quick Phenotypic Neurological Scoring System for Evaluating Disease Progression in the SOD1-G93A Mouse Model of ALS.” J Vis Exp(104); Leitner M., et. al. (2009). “Working with ALS mice: Guidelines for preclinical testing & colony management.” The Jackson Laboratory) were recorded for each mouse every 5 days until death or euthanasia. ALS TDI criteria are as follows: • Score of 0: Full extension of hind legs away from lateral midline when mouse is suspended by its tail, and mouse can hold this for two seconds, suspended two to three times. • Score of 1: Collapse or partial collapse of leg extension towards lateral midline (weakness) or trembling of hind legs during tail suspension. • Score of 2: Toes curl under at least twice during walking of 12 inches, or any part of foot is dragging along cage bottom/table. • Score of 3: Rigid paralysis or minimal joint movement, foot not being used for generating forward motion. • Score of 4: Mouse cannot right itself within 15 seconds after being placed on either side. *Mice were euthanized upon obtaining a score of 4. […]

SOD1 gene = conditions: in vitro studies; cited from earlier work
[2] = tested on: pro-inflammatory cytokines and chemokines in plasma; test: Meso Scale Discovery multi-spot cytokine assay, plasma; format: in vivo, mice
Procedure: Spinal cord frozen tissue was homogenized in ice-cold RIPA buffer (Thermo Fisher Scientific, #8990) supplemented with protease inhibitor cocktail (Thermo Fisher Scientific, #78430). Samples were centrifuged at 45,000 g for 30 minutes at 4° C. using an Optima TL ultracentrifuge and a TLA 120.2 rotor (Beckman Coulter). Expression levels of 10 pro-inflammatory cytokines and chemokines were assessed in the supernatants derived from spinal cord tissue or in the plasma, using an electrochemiluminescence-based multi-array method and MESO Quickplex SQ 120 system (MSD, Rockville, Md., USA). The 96-well V-PLEX Proinflammatory Mouse 1 Kit (Meso Scale Discovery, #K15048D) was used to measure simultaneously IFN-γ, IL-1β, IL-2, IL-4, IL-5, IL-6, CXCL1/KC/GRO, IL-10, IL-12, p70, and TNFα, following the manufacturer's instructions. Briefly, samples were diluted in the calibrator and added to the plate coated with an array of cytokine capture antibodies. Samples were incubated in the plate for 2 hours with shaking at room temperature, followed by washes with the wash buffer provided in the kit. The detection antibody solution was added to each well and the plate was incubated for 2 hours. The plate was washed with the wash buffer and the 2× Read Buffer T was added. The signal was immediately measured on a MESO QuickPlex SQ 120 instrument and was analyzed using the DISCOVERY WORKBENCH 4.0 software (Meso Scale Diagnostics, LLC., Rockville, Md., USA). Protein concentrations in the supernatants or the plasma samples were measured using the Pierce BCA protein assay kit (Thermo Scientific). Values in the graphs represent levels of cytokines normalized to the corresponding protein concentrations. […] Females (19 WtSOD1-Vehicle, 17 WtSOD1-Cromolyn, 19 TgSOD1-Vehicle, and 17 TgSOD1-Cromolyn) and Males (18 WtSOD1-Vehicle, 21 WtSOD1-Cromolyn, 21 TgSOD1-Vehicle, 17 TgSOD1-Cromolyn). […] The same pro-inflammatory panel from Meso Scale Discovery was used to assess the levels of cytokines and chemokines in the plasma of a subset of mice (Females: 13 WtSOD1-Vehicle, 15 WtSOD1-Cromolyn, 6 TgSOD1-Vehicle, and 6 TgSOD1-Cromolyn; and Males: 14 WtSOD1-Vehicle, 10 WtSOD1-Cromolyn, 6 TgSOD1-Vehicle, 3 TgSOD1-Cromolyn). We were able to measure 7 of the 10 pro-inflammatory cytokines in plasma which included IL-1β, IL-2, IL-5, IL-6, CXCL1, IL-10, and TNFα.

SOD1^G93A mouse model = test: Survival; format: in vivo, mice; conditions: Mantel-Cox test
Procedure: 149 mice were used in this study. All animal care, husbandry and experimentation were performed according to the guidelines set by the Massachusetts General Hospital Subcommittee on Research Animal Care. These experiments were approved by the Massachusetts General Hospital Institutional Animal Care and Use Committee (2014N000018). All mice were given access to food and water ad libitum. Mice were assessed regularly for motor impairment and euthanized upon onset of major paralysis (neurological scoring=4, see Neurological Score below) to minimize suffering as described previously. […] The endpoint used in this study was based on previously reported criteria by ALS TDI, the loss of self-righting ability within 15 seconds (neurological score=4) or the inability to move to reach food on the cage floor. Mice that reached the humane endpoint were euthanized within 3 hours.
149 male and female age- and litter-matched transgenic (Tg) SOD1^G93A and wild-type (Wt) SOD1^G93A mice were used with the following breakdown: Females (19 WtSOD1-Vehicle, 17 WtSOD1-Cromolyn, 19 TgSOD1-Vehicle, and 17 TgSOD1-Cromolyn) and Males (18 WtSOD1-Vehicle, 21 WtSOD1-Cromolyn, 21 TgSOD1-Vehicle, 17 TgSOD1-Cromolyn).

Question: With `O=C(O)c1cc(=O)c2c(OCC(O)COc3cccc4oc(C(=O)O)cc(=O)c34)cccc2o1` [cromolyn, cromolyn sodium] as the compound, how does the body weight ([1]; 6.3 mg/kg i.p. once daily 5 days per week from P60, overall) read?
Answer: did not impact body weight

Question: And the body weight ([1]; 6.3 mg/kg i.p., all mice, at P130)?
Answer: significant improvement in body weight

Question: What about the “effect on SOD1 gene” value (SOD1 gene) of the same compound?
Answer: inhibits the SOD1 gene

Question: And the “IL-10 levels in plasma” value ([2]; TgSOD1-Cromolyn vs TgSOD1-Vehicle, p=0.0095)?
Answer: significantly decreased

Question: What about the “IL-2 levels in plasma” value ([2]; TgSOD1-Cromolyn vs TgSOD1-Vehicle, p=0.0211) of the same compound?
Answer: significantly decreased

Question: And the “IL-6 levels in plasma” value ([2]; TgSOD1-Cromolyn vs TgSOD1-Vehicle, p=0.0273)?
Answer: significantly decreased

Question: And the “TNFα levels in plasma” value ([2]; TgSOD1-Cromolyn vs TgSOD1-Vehicle, p=0.110)?
Answer: trend towards a decrease

Question: And the “IL-1β levels in plasma” value ([2]; between groups)?
Answer: no statistically significant difference

Question: What about the “IL-5 levels in plasma” value ([2]; between groups) of the same compound?
Answer: no statistically significant difference

Question: What about the survival (SOD1^G93A mouse model; all treated mice, p=0.1096) of the same compound?
Answer: did not have a significant effect on survival

Question: What about the survival (SOD1^G93A mouse model; female mice, p=0.01) of the same compound?
Answer: significant effect of treatment on female survival

Question: And the survival (SOD1^G93A mouse model; male mice alone, p<0.8831)?
Answer: did not have a significant effect on survival

From patent US20210059977A1, “COMBINATION THERAPIES FOR THE TREATMENT OF AMYOTROPHIC LATERAL SCLEROSIS AND RELATED DISORDERS” (The General Hospital Corporation, priority 2018, published 2021)
